In assay [1] the target is T1, Receptor-type tyrosine-protein phosphatase C (Homo sapiens, UniProt P08575).
T1 sequence (P08575 whole entry): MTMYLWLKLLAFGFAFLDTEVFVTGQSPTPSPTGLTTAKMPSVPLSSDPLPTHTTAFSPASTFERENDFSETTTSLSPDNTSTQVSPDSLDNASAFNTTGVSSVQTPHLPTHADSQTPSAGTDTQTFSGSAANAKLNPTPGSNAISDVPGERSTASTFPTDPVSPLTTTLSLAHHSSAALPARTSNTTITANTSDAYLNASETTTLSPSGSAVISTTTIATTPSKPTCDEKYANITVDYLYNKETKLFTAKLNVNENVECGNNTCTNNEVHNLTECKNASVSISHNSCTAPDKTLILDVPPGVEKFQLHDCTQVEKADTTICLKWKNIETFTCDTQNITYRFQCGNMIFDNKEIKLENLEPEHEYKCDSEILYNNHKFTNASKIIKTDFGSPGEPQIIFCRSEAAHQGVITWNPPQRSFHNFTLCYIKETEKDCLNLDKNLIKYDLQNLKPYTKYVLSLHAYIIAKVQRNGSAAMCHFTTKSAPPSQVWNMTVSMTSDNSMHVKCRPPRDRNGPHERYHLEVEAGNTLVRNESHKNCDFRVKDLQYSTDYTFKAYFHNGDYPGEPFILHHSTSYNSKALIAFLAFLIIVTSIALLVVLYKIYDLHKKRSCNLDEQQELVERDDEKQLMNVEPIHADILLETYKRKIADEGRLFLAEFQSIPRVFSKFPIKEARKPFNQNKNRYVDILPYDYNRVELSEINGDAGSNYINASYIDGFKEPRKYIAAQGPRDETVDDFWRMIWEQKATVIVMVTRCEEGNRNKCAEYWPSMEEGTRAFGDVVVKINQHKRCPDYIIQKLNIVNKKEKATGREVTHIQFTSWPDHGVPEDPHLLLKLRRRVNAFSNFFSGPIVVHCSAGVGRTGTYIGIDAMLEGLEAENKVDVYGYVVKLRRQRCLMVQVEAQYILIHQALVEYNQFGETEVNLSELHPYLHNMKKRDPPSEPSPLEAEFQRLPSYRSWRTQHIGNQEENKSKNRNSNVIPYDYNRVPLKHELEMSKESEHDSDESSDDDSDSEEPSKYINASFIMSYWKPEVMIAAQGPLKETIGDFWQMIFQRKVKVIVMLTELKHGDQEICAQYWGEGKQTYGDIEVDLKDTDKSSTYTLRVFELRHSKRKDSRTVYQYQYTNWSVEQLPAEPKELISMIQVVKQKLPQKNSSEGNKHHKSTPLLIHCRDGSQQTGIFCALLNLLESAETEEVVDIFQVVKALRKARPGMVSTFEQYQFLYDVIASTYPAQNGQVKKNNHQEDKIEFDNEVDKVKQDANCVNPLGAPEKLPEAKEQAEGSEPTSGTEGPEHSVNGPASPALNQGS
Put plainly: The compound was tested in vitro for the inhibitory activity against CD45 antigen (human PTPases.).

The target of assay [2] is Dual specificity protein phosphatase 3 (Homo sapiens, UniProt P51452). Put plainly: The compound was tested in vitro for the inhibitory activity against Dual specificity protein phosphatase 3 (SH-PTP1) (human PTPases.).
Assay [3] in a line: The compound was tested in vitro for the inhibitory activity against human HePTP360 (Hematopoietic protein tyrosine phosphatase).
Assay [4] relates to Mus musculus. Put plainly: The compound was tested in vivo(ob/ob mouse) for intestinal absorption against insulin, at a concentration of 100 mg/kg/day. Format: functional.
The test system of assay [5] is Mus musculus. Put plainly: The compound was tested in vivo(ob/ob mouse) for intestinal absorption against plasma glucose at a concentration of 100 mg/kg/day. It is filed as functional.
Assay [6] concerns the target T2, Tyrosine-protein phosphatase non-receptor type 12 (Homo sapiens, UniProt Q05209).
T2 sequence (Q05209 whole entry): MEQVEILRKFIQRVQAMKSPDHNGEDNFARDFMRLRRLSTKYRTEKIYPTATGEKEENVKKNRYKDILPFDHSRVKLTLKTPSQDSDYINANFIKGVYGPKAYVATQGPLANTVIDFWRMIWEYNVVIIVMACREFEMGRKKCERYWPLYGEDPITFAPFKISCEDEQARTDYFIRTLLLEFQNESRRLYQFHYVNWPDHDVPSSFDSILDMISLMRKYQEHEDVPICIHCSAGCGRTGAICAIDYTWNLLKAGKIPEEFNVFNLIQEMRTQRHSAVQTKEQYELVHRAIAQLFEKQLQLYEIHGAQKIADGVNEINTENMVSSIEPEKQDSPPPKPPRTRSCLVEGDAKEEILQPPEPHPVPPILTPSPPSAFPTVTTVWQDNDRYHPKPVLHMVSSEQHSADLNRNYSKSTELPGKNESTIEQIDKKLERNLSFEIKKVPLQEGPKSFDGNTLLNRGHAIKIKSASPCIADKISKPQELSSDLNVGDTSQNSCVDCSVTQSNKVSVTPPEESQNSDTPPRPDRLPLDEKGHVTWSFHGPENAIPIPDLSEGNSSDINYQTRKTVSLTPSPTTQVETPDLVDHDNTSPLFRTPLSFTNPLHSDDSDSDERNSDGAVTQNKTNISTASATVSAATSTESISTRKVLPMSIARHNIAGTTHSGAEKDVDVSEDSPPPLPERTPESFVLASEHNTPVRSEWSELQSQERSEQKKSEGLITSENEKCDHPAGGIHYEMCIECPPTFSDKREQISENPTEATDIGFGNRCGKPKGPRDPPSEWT
Put plainly: The compound was tested in vitro for the inhibitory activity against Protein tyrosine phosphatase PEST (SH-PTP1) (human PTPases.).

Assay [7] has as its target Tyrosine-protein phosphatase non-receptor type 6 (Homo sapiens, UniProt P29350). Put plainly: The compound was tested in vitro for the inhibitory activity against Protein-tyrosine phosphatase 1C (SH-PTP1) (human PTPases.).
Assay [8] concerns the target Receptor-type tyrosine-protein phosphatase alpha (Homo sapiens, UniProt P18433). Put plainly: The compound was tested in vitro for the inhibitory activity against Protein-tyrosine phosphatase 1 alpha (LRP) (human PTPases.).
Assay [9] addresses T3, Tyrosine-protein phosphatase non-receptor type 1 (Homo sapiens, UniProt P18031).
T3 sequence (P18031 whole entry): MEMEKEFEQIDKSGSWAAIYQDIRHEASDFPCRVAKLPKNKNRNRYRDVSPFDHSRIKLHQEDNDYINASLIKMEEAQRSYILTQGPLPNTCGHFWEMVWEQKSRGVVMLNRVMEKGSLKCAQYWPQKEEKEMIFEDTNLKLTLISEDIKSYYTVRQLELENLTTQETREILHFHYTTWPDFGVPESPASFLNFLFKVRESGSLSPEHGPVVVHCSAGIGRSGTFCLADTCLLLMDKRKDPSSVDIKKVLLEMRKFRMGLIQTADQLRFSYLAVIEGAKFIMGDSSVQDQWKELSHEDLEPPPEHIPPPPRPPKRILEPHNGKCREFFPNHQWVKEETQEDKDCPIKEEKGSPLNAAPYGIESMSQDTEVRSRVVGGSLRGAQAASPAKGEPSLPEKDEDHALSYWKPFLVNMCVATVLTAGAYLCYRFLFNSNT
Put plainly: The compound was tested in vitro for the inhibitory activity against Protein-tyrosine phosphatase 1B (human PTPases.).

The target of assay [10] is Receptor-type tyrosine-protein phosphatase beta (Homo sapiens, UniProt P23467). Put plainly: The compound was tested in vitro for the inhibitory activity against Protein-tyrosine phosphatase beta (SH-PTP1) (human PTPases.).
The test system of assay [11] is Mus musculus. Put plainly: The compound was tested in vivo(ob/ob mouse) for intestinal absorption against insulin, at a concentration of 200 mg/kg/day. It is filed as functional.
Assay [12] concerns Mus musculus. Put plainly: The compound was tested in vivo(ob/ob mouse) for intestinal absorption against plasma glucose at a concentration of 200 mg/kg/day. Format: functional.
Assay [13] deals with Mus musculus. Put plainly: The compound was tested in vivo(ob/ob mouse) for intestinal absorption against insulin, at a concentration of 10 mg/kg/day. Format: functional.
The subject of assay [14] is Mus musculus. Put plainly: The compound was tested in vivo(ob/ob mouse) for intestinal absorption against insulin, at a concentration of 25 mg/kg/day. Format: functional.
Assay [15] has as its system Mus musculus. Put plainly: The compound was tested in vivo(ob/ob mouse) for intestinal absorption against insulin, at a concentration of 5 mg/kg/day. Format: functional.
The subject of assay [16] is Mus musculus. Put plainly: The compound was tested in vivo(ob/ob mouse) for intestinal absorption against plasma glucose at a concentration of 10 mg/kg/day. It is filed as functional.
Assay [17] has as its system Mus musculus. Put plainly: The compound was tested in vivo(ob/ob mouse) for intestinal absorption against plasma glucose at a concentration of 1 mg/kg/day. (i.p.). It is filed as functional. Particulars: route intraperitoneal.
For assay [18], the system named is Mus musculus. Put plainly: The compound was tested in vivo(ob/ob mouse) for intestinal absorption against plasma glucose at a concentration of 25 mg/kg/day. Format: functional.
Assay [19] concerns Mus musculus. Put plainly: The compound was tested in vivo(ob/ob mouse) for intestinal absorption against plasma glucose at a concentration of 5 mg/kg/day. Format: functional.
The target of assay [20] is T3, Tyrosine-protein phosphatase non-receptor type 1. Put plainly: The compound was tested in vitro for the inhibitory activity against hPTP1B (human PTPases.).
Assay [21] has as its system Mus musculus. Put plainly: The compound was tested in vivo(ob/ob mouse) for intestinal absorption against insulin, at a concentration of 50 mg/kg/day. Format: functional.
The subject of assay [22] is Mus musculus. Put plainly: The compound was tested in vivo(ob/ob mouse) for intestinal absorption against insulin, at a concentration of 75 mg/kg/day. It is filed as functional.
Assay [23] deals with Mus musculus. Put plainly: The compound was tested in vivo(ob/ob mouse) for intestinal absorption against plasma glucose at a concentration of 50 mg/kg/day. It is filed as functional.
For assay [24], the system named is Mus musculus. Put plainly: The compound was tested in vivo(ob/ob mouse) for intestinal absorption against plasma glucose at a concentration of 75 mg/kg/day. It is filed as functional.
Assay [25] has as its target T3, Tyrosine-protein phosphatase non-receptor type 1. Put plainly: The compound was tested for inhibitory activity against recombinant Protein-tyrosine phosphatase 1B (human).
Assay [26] has as its system Mus musculus. Put plainly: The compound was tested in vivo(ob/ob mouse) for intestinal absorption against insulin, at a concentration of 90 mg/kg/day. Format: functional.
Assay [27] concerns Mus musculus. Put plainly: The compound was tested in vivo(ob/ob mouse) for intestinal absorption against plasma glucose at a concentration of 90 mg/kg/day. Format: functional.

Among the data in ChEMBL document CHEMBL1132177, “PTP1B inhibition and antihyperglycemic activity in the ob/ob mouse model of novel 11-arylbenzo[b]naphtho[2,3-d]furans and 11-arylbenzo[b]naphtho[2,3-d]thiophenes” (J Med Chem, 1999) are IC50, Decrease and inhibition in vivo values, retold here.

The structures appear in SMILES notation.

Receptor-type tyrosine-protein phosphatase alpha, sequence (P18433 whole entry): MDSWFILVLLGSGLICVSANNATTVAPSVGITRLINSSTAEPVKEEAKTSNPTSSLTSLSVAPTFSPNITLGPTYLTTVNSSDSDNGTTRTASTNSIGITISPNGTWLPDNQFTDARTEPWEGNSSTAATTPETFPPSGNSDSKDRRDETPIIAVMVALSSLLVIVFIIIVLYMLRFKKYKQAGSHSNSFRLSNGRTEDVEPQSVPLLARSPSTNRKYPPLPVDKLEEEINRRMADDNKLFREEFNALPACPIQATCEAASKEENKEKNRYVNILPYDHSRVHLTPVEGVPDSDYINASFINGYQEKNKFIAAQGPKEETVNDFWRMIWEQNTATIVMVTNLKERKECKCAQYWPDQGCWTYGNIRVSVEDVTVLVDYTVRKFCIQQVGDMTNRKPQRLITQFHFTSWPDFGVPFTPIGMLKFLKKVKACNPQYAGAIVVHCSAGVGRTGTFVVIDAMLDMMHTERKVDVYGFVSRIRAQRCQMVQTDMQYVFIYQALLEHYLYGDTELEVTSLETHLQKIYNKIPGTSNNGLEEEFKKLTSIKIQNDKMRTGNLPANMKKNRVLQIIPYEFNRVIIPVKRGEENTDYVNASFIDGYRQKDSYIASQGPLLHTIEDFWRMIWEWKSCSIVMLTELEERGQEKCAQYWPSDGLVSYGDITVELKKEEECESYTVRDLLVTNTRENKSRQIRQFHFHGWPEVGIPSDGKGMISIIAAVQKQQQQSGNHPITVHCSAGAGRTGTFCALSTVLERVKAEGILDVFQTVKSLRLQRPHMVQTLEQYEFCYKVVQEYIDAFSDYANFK
Receptor-type tyrosine-protein phosphatase beta, sequence (P23467 whole entry): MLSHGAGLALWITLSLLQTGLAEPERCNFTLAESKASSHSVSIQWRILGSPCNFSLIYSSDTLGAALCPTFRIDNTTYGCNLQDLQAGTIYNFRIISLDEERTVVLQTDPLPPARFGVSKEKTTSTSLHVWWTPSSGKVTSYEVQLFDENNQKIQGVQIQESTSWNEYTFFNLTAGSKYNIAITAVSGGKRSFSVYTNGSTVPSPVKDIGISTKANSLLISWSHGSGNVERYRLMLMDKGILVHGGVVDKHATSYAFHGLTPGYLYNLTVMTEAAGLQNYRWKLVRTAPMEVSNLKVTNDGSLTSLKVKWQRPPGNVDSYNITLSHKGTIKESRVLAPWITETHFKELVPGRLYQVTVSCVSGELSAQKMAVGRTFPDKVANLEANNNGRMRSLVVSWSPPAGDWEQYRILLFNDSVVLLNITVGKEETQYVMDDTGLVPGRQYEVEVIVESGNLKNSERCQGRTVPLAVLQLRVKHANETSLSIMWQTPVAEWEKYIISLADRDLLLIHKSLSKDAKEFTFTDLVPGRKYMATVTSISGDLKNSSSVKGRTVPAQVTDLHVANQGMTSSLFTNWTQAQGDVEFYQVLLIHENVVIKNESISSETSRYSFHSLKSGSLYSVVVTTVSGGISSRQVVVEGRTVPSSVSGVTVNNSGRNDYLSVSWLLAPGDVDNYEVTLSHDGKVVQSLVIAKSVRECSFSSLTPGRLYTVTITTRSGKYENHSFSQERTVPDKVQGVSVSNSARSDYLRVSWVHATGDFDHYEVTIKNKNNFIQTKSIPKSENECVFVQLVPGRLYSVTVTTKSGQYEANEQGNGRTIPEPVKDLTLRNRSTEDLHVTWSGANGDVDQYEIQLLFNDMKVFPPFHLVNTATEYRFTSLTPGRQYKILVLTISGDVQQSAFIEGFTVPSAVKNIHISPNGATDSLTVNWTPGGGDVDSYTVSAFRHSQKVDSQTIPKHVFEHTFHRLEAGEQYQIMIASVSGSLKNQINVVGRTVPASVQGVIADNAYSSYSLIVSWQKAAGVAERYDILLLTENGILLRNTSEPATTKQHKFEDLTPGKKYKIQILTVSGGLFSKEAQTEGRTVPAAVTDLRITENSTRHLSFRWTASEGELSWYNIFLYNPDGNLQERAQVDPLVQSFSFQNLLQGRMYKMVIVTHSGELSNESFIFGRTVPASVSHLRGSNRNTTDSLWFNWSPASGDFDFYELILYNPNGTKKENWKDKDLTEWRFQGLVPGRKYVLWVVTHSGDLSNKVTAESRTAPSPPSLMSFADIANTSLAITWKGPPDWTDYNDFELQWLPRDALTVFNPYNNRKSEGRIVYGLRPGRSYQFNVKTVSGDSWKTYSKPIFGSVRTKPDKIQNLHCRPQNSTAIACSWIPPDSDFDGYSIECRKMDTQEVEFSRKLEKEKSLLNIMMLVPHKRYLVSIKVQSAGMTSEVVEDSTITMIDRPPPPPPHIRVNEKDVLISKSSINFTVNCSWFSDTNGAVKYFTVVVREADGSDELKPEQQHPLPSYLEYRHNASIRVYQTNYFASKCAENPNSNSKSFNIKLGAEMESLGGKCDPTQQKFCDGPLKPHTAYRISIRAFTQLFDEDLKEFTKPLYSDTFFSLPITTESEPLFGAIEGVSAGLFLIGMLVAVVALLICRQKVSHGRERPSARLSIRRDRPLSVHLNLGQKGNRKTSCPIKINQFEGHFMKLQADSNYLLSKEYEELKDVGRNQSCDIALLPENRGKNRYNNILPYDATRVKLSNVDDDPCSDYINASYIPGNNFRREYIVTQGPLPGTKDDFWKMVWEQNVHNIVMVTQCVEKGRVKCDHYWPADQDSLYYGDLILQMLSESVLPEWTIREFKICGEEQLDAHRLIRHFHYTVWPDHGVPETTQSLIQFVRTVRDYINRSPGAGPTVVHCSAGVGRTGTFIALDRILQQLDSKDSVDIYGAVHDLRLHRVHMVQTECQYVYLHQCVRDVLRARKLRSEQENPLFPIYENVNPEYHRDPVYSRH
Tyrosine-protein phosphatase non-receptor type 6, sequence (P29350 whole entry): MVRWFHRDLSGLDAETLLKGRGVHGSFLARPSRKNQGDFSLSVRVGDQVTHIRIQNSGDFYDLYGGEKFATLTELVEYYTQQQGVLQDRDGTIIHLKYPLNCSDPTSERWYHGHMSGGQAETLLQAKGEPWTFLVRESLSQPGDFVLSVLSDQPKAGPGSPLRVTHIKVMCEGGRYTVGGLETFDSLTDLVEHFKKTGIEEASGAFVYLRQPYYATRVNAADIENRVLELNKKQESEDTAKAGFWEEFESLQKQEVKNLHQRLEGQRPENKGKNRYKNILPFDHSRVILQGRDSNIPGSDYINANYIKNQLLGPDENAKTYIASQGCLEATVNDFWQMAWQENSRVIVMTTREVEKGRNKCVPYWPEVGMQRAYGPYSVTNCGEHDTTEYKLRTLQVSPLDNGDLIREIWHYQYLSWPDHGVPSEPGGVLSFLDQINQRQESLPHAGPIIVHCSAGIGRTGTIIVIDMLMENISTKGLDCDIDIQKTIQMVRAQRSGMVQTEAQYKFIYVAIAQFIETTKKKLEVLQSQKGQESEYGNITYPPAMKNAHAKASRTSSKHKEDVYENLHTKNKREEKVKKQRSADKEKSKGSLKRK
Dual specificity protein phosphatase 3, sequence (P51452 whole entry): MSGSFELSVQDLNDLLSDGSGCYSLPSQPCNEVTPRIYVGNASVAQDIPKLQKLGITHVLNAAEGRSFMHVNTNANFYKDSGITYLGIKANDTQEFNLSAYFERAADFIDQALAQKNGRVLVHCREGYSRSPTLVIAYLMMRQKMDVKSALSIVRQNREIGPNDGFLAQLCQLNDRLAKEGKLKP

In general, IC50 refers to the point on the concentration scale where inhibition reaches its midpoint. For the molecule `O=C(O)COc1c(Br)cc(-c2c3ccccc3c(Br)c3sc4ccccc4c23)cc1Br`, the half-maximal inhibitory concentration (IC50) was found to be 9100 nM in assay [1]; 7900 nM in assay [2]; 2700 nM in assay [3]; 2300 nM in assay [6]; 5000 nM in [7]; 17000 nM in [8]. Also, the results for the half-inhibitory concentration (IC50) in [9] and in [10] were 390 nM and 600 nM, respectively. In addition, the Decrease with Mus musculus [4] turned out to be 61%; in the assay on Mus musculus [5], 23%.
For orientation: inhibition in vivo means the share of the control response that was lost under treatment. Read a low inhibition in vivo as little suppression. In the case of `Cc1c(C)c2c(c(C)c1O)CCC(C)(COc1ccc(CC3SC(=O)NC3=O)cc1)O2` (centres undefined) [TROGLITAZONE], the inhibition in vivo at 200 mg/kg/day is less than 15% in the assay on Mus musculus [11] and 34% in the assay on Mus musculus [12].
On to `O=C(O)[C@@H](Cc1ccccc1)Oc1c(Br)cc(-c2c3ccccc3c(Br)c3oc4ccccc4c23)cc1Br`, for which the half-inhibitory concentration (IC50) in assay [1] was determined as 6300 nM; in assay [2], 11000 nM; in assay [3] it was 2100 nM; in assay [6], 2200 nM; in assay [7], 9000 nM; in assay [8], 13000 nM. Besides, the half-inhibitory concentration (IC50) in [20] stood at 80 nM; in assay [10], 500 nM. Besides, the Decrease in the assay with Mus musculus [13] worked out at 69%; in the assay on Mus musculus [14], 86%; with Mus musculus [15], 56%; in the assay on Mus musculus [16] it was 29%; in the assay on Mus musculus [17], 38%; with Mus musculus [18], 42%. In the assay on Mus musculus [19], this molecule registered a Decrease of less than 15%.
`O=C(O)[C@@H](Cc1ccccc1)Oc1c(Br)cc(-c2c3ccccc3c(Br)c3sc4ccccc4c23)cc1Br`: the Decrease in the assay on Mus musculus [13] is given as less than 15%; in the assay with Mus musculus [14] it was 72%; in the assay with Mus musculus [21], 71%; in the assay with Mus musculus [22], 85%; in the assay on Mus musculus [16], 26%; with Mus musculus [18] it was 26%. Also, the figures for the Decrease in the assay with Mus musculus [23] and in the assay with Mus musculus [24] were 35% and 50%, respectively.
Take `CC1(COc2ccc(CC3SC(=O)NC3=O)cc2)CCCCC1` (centres undefined) [CIGLITAZONE]: the values for the inhibition in vivo at 100 mg/kg/day in the assay with Mus musculus [4] and in the assay with Mus musculus [5] were 39% and 43%, respectively.
As to `O=C(O)[C@@H](CCN1C(=O)c2ccccc2C1=O)Oc1c(Br)cc(-c2c3ccccc3c(Br)c3sc4ccccc4c23)cc1Br`, the inhibition in vivo at 100 mg/kg/day in the assay on Mus musculus [4] and with Mus musculus [5] was less than 15% throughout. For the same molecule, in assay [25], the IC50 worked out at 11 nM.
On to `Oc1c(Br)cc(-c2c3ccccc3c(Br)c3sc4ccccc4c23)cc1Br`, for which the Decrease in the assay on Mus musculus [4] and with Mus musculus [5] was less than 15% each time.
In the case of `O=P(O)(O)COc1c(Br)cc(-c2c3ccccc3c(Br)c3sc4ccccc4c23)cc1Br`, the Decrease with Mus musculus [26] and with Mus musculus [27] was less than 15% in each case.
